The source of these data is US10570131B2, “Heterocyclic compounds and their use in preventing or treating bacterial infections” (MUTABILIS, priority 2015, dated 2020).

One assay deals with T1, OXA-15 (Pseudomonas aeruginosa, UniProt Q51574).
T1 construct: made in house; host or cells: E. coli expression vector
Nature of the assay: biochemical. As for the experimental part:
(§1) Method 1: β-lactamase Inhibitory Activity, Determination of IC50 (Table 1)
(§2) Enzyme activity was monitored by spectrophotometric measurement of nitrocefin (NCF—TOKU-E, N005) hydrolysis at 485 nm, at room temperature and in assay buffer A: 100 mM Phosphate pH7, 2% glycerol and 0.1 mg/mL Bovine serum albumin (Sigma, B4287). Enzymes were cloned in E. coli expression vector, expressed and purified in house using classical procedures. To a transparent polystyrene plate (Corning, 3628) were added in each well 5 μL DMSO or inhibitor dilutions in DMSO and 80 μL enzyme in buffer A. Plates were immediately read at 485 nm in a microplate spectrophotometer (BioTek, PowerWave HT) to enable background subtraction. After 30 min of pre-incubation at room temperature, 15 μL of NCF (200 μM final) were finally added in each well. Final enzyme concentrations were 0.1 nM (TEM-1), 0.075 nM (SHV-1), 0.4 nM (CTX-M-15), 1 nM (KPC-2), 0.2 nM (P99 AmpC), 0.2 nM (CMY-37), 0.4 nM (AmpC P. aeruginosa), 0.2 nM (OXA-1), 1.2 nM (OXA-11), 0.4 nM (OXA-15) and 0.3 nM (OXA-48). After 20 min incubation at room temperature, plates were once again read at 485 nm. Enzyme activity was obtained by subtracting the final signal by the background, and was converted to enzyme inhibition using non inhibited wells. IC50 curves were fitted to a classical Langmuir equilibrium model with Hill slope using XLFIT (IDBS).

For a further assay, the target named is T2, AmpC (P99) (Enterobacter cloacae, UniProt P05364).
T2 construct: made in house; host or cells: E. coli expression vector
Nature of the assay: biochemical. As for the experimental part:
as §1, §2

The next assay has as its target T3, AmpC (PAE) (Pseudomonas aeruginosa, UniProt P24735).
T3 construct: made in house; host or cells: E. coli expression vector
Nature of the assay: biochemical. Set-up: species or system P. aeruginosa. The protocol: as §1, §2

Assay [1] has as its system K. pneumoniae BAA-1898. Nature of the assay: MIC of ceftazidime alone and in combination with compounds (synergy), broth microdilution. The assay is classed as cell-based. The following applies: MIC of ceftazidime with compound fixed at 4 μg/mL; strain BAA-1898 (TEM-1, SHV-11, SHV-12, KPC-2). The protocol: (§3) Compounds of the present invention were assessed against genotyped bacterial strains alone or in combination with the β-lactam ceftazidime (CAZ). […] Briefly, compounds alone according to the invention were prepared in DMSO and spotted (2 μL each) on sterile polystyrene plates (Corning, 3788). […] Log phase bacterial suspensions were adjusted to a final density of 5×10^5 cfu/mL in cation-adjusted Mueller-Hinton broth (Becton-Dickinson) and added to each well (98 μL). Microplates were incubated for 16-20 h at 35° C. in ambient air. The MIC of the compounds was defined as the lowest concentration of said compounds that prevented bacterial growth as read by visual inspection.

In assay [2] the test system is K. pneumoniae 6299. The assay is described as above. Type of assay: cell-based. The following applies: MIC of ceftazidime with compound fixed at 4 μg/mL; strain 6299 (TEM-1, SHV-11, OXA-163). The protocol:
as §3

Assay [3] has as its system P. aeruginosa CIP105250. The assay is described as above. Type of assay: cell-based. As to conditions: MIC of ceftazidime with compound fixed at 4 μg/mL; strain CIP105250 (OXA-15). The protocol:
as §3

Assay [4] relates to P. aeruginosa CIP107051. The assay is described as above. Type of assay: cell-based. As to conditions: MIC of ceftazidime with compound fixed at 4 μg/mL; strain CIP107051 (TEM-24). As for the experimental part:
as §3

The subject of assay [5] is E. cloacae P99. The experiment in a line: MIC of compounds alone, broth microdilution. The assay is classed as cell-based. The following applies: Enterobacter cloacae; strain P99 (AmpC); read-out: MIC compounds of the invention alone. As for the experimental part:
as §3

The test system of assay [6] is E. coli 190317. Nature of the assay: MIC of compounds alone, broth microdilution. Type of assay: cell-based. The following applies: Escherichia coli; strain 190317 (TEM-1, SHV-12, CTX-M-15, OXA-1); read-out: MIC compounds of the invention alone. As for the experimental part: as §3
The next assay concerns E. coli RGN238. The experiment in a line: MIC of compounds alone, broth microdilution. The assay is classed as cell-based. As to conditions: Escherichia coli, RGN238, read-out: MIC compounds of the invention alone. The protocol: as §3
Assay [7] concerns P. aeruginosa CIP107051. Nature of the assay: MIC of compounds alone, broth microdilution. The following applies: Pseudomonas aeruginosa; strain CIP107051 (TEM-24); read-out: MIC compounds of the invention alone. The assay is classed as cell-based. As for the experimental part: as §3
Another assay has as its system E. coli 131119. The experiment in a line: microbe, parasite or virus in culture. The assay is classed as cell-based. As to conditions: Escherichia coli, 131119, read-out: MIC compounds of the invention alone. As for the experimental part:
as §3

The subject of assay [8] is K. pneumoniae BAA-1898. The experiment in a line: microbe, parasite or virus in culture. The following applies: Klebsiella pneumoniae, BAA1898, read-out: MIC compounds of the invention alone. The assay is classed as cell-based. As for the experimental part: as §3
In assay [9] the test system is K. pneumoniae 6299. The experiment in a line: microbe, parasite or virus in culture. The assay is classed as cell-based. The following applies: Klebsiella pneumoniae, 6299, read-out: MIC compounds of the invention alone. As for the experimental part: as §3
The subject of assay [10] is P. aeruginosa CIP105250. The experiment in a line: microbe, parasite or virus in culture. The assay is classed as cell-based. As to conditions: Pseudomonas aeruginosa, CIP105250, read-out: MIC compounds of the invention alone. The protocol: as §3
In another assay the target is T4, KPC-2 (Klebsiella pneumoniae, UniProt Q9F663).
T4 construct: made in house; host or cells: E. coli expression vector
The experiment in a line: β-lactamase inhibitory activity, IC50 (nitrocefin hydrolysis). Type of assay: biochemical. As for the experimental part: as §1, §2

The target in another assay is T5, OXA-1 (Escherichia coli, UniProt P13661).
T5 construct: made in house; host or cells: E. coli expression vector
Described as above. The assay is classed as biochemical. As for the experimental part:
as §1, §2

The next assay addresses T6, SHV-1 (Klebsiella pneumoniae, UniProt P0AD64).
T6 construct: made in house; host or cells: E. coli expression vector
The assay is described as above. The assay is classed as biochemical. As for the experimental part:
as §1, §2

The next assay addresses T7, CTX-M-15 (Escherichia coli, UniProt Q9EXV5).
T7 construct: made in house; host or cells: E. coli expression vector
The assay is described as above. Type of assay: biochemical. The protocol:
as §1, §2

The target of a further assay is T8, OXA-48 (Klebsiella pneumoniae, UniProt Q6XEC0).
T8 construct: made in house; host or cells: E. coli expression vector
The assay is described as above. The assay is classed as biochemical. As for the experimental part:
as §1, §2

Another assay addresses T9, TEM-1 (Escherichia coli, UniProt P62593).
T9 construct: made in house; host or cells: E. coli expression vector
Described as above. Type of assay: biochemical. As to conditions: class (A); 30 min pre-incubation; NCF 200 μM. The protocol: as §1, §2

The target in another assay is T10, OXA-11 (Pseudomonas aeruginosa, UniProt Q06778).
T10 construct: made in house; host or cells: E. coli expression vector
Described as above. The assay is classed as biochemical. The protocol:
as §1, §2

Assay [11] relates to E. coli 190317. Nature of the assay: MIC of ceftazidime alone and in combination with compounds (synergy), broth microdilution. Type of assay: cell-based. The following applies: MIC of ceftazidime with compound fixed at 4 μg/mL; strain 190317 (TEM-1, SHV-12, CTX-M-15, OXA-1).
Assay [12] has as its system E. cloacae P99. Described as above. The assay is classed as cell-based. The following applies: MIC of ceftazidime with compound fixed at 4 μg/mL; strain P99 (AmpC).

T5 sequence (P13661 26-276): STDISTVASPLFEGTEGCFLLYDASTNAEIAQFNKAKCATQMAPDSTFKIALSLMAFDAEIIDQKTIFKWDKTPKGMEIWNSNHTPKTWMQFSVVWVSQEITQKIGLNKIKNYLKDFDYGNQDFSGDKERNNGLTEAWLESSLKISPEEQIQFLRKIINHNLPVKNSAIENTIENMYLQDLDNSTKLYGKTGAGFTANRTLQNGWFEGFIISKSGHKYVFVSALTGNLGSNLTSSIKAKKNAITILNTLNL
T6 sequence (P0AD64 22-286): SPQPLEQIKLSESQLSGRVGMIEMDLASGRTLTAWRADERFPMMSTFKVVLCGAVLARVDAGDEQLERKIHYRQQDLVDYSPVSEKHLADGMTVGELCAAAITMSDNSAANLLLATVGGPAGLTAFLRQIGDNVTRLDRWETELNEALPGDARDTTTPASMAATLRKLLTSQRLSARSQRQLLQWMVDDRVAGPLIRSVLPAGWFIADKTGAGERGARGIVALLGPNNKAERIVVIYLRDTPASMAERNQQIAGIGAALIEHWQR
T4 sequence (Q9F663 25-293 limits assumed): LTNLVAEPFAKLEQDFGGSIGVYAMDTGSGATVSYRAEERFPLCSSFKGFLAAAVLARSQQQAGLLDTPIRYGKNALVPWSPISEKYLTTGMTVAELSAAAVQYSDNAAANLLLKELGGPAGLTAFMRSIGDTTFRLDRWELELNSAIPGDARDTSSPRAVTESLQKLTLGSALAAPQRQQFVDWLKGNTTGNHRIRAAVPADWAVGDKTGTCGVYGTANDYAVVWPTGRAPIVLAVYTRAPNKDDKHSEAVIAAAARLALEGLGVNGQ
T1 sequence (Q51574 22-275): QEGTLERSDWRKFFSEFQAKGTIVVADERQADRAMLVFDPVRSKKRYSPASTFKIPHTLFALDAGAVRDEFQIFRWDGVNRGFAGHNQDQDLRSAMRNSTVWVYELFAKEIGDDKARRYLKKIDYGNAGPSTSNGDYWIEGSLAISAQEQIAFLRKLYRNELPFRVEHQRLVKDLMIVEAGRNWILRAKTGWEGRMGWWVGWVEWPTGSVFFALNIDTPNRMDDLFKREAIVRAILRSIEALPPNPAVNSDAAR
T7 sequence (Q9EXV5 entry or part of it): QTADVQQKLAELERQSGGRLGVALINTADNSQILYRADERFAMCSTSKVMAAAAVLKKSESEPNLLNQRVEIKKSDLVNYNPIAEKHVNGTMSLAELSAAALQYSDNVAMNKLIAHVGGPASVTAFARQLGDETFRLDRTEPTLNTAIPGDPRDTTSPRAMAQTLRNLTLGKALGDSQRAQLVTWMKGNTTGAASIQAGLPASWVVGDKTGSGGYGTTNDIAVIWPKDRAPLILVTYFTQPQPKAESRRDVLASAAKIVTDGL
T9 sequence (P62593 24-286 limits assumed): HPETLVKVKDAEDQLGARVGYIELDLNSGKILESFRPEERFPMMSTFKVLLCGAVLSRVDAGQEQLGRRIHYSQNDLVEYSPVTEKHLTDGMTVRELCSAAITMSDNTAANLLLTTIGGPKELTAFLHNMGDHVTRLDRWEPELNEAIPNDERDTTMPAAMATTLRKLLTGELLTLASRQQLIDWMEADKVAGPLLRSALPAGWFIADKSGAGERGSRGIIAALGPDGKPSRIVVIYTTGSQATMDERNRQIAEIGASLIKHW
T8 sequence (Q6XEC0 23-265 limits assumed): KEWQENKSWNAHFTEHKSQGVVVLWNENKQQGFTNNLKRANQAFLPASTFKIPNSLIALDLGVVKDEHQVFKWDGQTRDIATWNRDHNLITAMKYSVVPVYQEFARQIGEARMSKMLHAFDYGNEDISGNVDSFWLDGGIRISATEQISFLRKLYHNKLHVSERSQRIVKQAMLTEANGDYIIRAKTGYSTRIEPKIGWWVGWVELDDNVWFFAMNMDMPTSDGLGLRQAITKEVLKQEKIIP
T3 sequence (P24735 27-397): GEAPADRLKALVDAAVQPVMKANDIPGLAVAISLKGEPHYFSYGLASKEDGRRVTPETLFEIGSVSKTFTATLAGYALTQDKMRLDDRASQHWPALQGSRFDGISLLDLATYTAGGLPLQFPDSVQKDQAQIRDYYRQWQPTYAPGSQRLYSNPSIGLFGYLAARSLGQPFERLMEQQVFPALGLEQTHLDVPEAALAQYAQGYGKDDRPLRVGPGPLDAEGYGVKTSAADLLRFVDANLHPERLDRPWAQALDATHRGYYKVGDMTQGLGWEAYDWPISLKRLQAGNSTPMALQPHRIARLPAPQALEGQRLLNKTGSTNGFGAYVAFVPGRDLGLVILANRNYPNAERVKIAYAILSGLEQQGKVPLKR
T2 sequence (P05364 21-381): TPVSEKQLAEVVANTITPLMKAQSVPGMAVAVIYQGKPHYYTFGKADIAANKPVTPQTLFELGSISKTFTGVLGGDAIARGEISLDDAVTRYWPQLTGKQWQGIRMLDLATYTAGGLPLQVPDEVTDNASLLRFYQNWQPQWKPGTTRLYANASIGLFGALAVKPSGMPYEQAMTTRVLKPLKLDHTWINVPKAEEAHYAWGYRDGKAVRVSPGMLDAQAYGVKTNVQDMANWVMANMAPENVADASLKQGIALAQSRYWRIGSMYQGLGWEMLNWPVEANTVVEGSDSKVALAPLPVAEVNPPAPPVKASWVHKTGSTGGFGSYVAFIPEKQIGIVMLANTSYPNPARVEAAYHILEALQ
T10 sequence (Q06778 21-266): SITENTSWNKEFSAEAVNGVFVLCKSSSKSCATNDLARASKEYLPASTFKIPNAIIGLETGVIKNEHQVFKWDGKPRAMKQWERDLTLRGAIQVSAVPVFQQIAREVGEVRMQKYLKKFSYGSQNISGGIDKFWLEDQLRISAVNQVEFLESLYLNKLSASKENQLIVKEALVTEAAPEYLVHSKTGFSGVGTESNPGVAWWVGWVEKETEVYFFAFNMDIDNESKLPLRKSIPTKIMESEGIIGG

Regarding `NC(=O)CON=C1C[C@@H](C(N)=O)N2C[C@@H]1N(OS(=O)(=O)[O-])C2=O.[Na+]` (mixture of isomers) [Example 3, sodium [(2S, 5S)-4-(2-amino-2-oxo-ethoxy)imino-2-carbamoyl-7-oxo-1,6-diazabicyclo[3.2.1]octan-6-yl] sulfate], the IC50 came to 1.6 nM on OXA-15; 7.4 nM against AmpC (P99); 220 nM against AmpC (PAE); 33 nM at KPC-2; 17 nM against OXA-1; 4.6 nM on SHV-1. In addition, the IC50 against CTX-M-15 is 2 nM; at OXA-48, 5.7 nM; at TEM-1, 3 nM; on OXA-11, 48 nM. In addition, the “MIC, combination of CAZ and compounds of the invention at 4 μg/mL” value is 64 µg/mL in the assay with K. pneumoniae BAA-1898 [1]; 4 µg/mL in the assay with K. pneumoniae 6299 [2]; 32 µg/mL in the assay on P. aeruginosa CIP105250 [3]; 32 µg/mL in the assay on P. aeruginosa CIP107051 [4]; at most 0.125 µg/mL with E. coli 190317 [11]; 32 µg/mL in the assay on E. cloacae P99 [12]. Besides, the MIC in the assay on E. cloacae P99 [5], with E. coli 190317 [6], with E. coli RGN238, with P. aeruginosa CIP107051 [7], with E. coli 131119 and in the assay with K. pneumoniae BAA-1898 [8] was above 32 µg/mL each time. The MIC with K. pneumoniae 6299 [9] and in the assay on P. aeruginosa CIP105250 [10] was above 32 µg/mL throughout.
In the case of `CNC(=O)CON=C1C[C@@H](C(=O)OC)N2C[C@@H]1N(OS(=O)(=O)[O-])C2=O.[Na+]` (mixture of isomers) [Example 1, sodium [(2S,5S)-2-methoxycarbonyl-4-[2-(methylamino)-2-oxo-ethoxy]imino-7-oxo-1,6-diazabicyclo[3.2.1]octan-6-yl] sulfate], the IC50 against OXA-15 is 0.65 nM; against AmpC (P99) it was 4.1 nM; on AmpC (PAE) it was 37 nM; against KPC-2, 7.8 nM; on OXA-1 it was 80 nM; against SHV-1, 1.3 nM. The 50% inhibitory concentration (IC50) on CTX-M-15 is 5.4 nM; at OXA-48 it was 0.51 nM; on TEM-1, 3.2 nM; at OXA-11, 4.1 nM. The “MIC, combination of CAZ and compounds of the invention at 4 μg/mL” value in the assay on K. pneumoniae BAA-1898 [1] is 128 µg/mL; in the assay with K. pneumoniae 6299 [2], 32 µg/mL; in the assay on P. aeruginosa CIP105250 [3] it was 64 µg/mL; in the assay on P. aeruginosa CIP107051 [4] it was 64 µg/mL; in the assay on E. coli 190317 [11], 4 µg/mL; in the assay on E. cloacae P99 [12], 64 µg/mL. Besides, the MIC in the assay with E. cloacae P99 [5], with E. coli 190317 [6], in the assay on E. coli RGN238, with P. aeruginosa CIP107051 [7], in the assay with E. coli 131119 and in the assay on K. pneumoniae BAA-1898 [8] was above 32 µg/mL throughout. In addition, the MIC with K. pneumoniae 6299 [9] and with P. aeruginosa CIP105250 [10] was above 32 µg/mL each time.
